# How the values were obtained:
# HCT-116 = assay: Antiproliferative activity against human HCT116 cells harboring PI3CA H1047R mutant after 72 hrs by MTT assay; type: functional, cell-based; conditions: HCT-116, 72 h
# MCF7 = assay: Antiproliferative activity against human MCF7 cells harboring PI3CA E545K mutant after 72 hrs by MTT assay; type: functional, cell-based; conditions: MCF7, 72 h
# [1] = molecular target: Phosphatidylinositol 4,5-bisphosphate 3-kinase catalytic subunit alpha isoform (Homo sapiens, UniProt P42336); assay: Inhibition of PI3Kalpha (unknown origin) assessed as reduction in ATP depletion using lipid substrate after 40 mins by Kinase-Glo luminescent assay
# Phosphatidylinositol 4,5-bisphosphate 3-kinase catalytic subunit alpha isoform, sequence (P42336 whole entry, canonical isoform): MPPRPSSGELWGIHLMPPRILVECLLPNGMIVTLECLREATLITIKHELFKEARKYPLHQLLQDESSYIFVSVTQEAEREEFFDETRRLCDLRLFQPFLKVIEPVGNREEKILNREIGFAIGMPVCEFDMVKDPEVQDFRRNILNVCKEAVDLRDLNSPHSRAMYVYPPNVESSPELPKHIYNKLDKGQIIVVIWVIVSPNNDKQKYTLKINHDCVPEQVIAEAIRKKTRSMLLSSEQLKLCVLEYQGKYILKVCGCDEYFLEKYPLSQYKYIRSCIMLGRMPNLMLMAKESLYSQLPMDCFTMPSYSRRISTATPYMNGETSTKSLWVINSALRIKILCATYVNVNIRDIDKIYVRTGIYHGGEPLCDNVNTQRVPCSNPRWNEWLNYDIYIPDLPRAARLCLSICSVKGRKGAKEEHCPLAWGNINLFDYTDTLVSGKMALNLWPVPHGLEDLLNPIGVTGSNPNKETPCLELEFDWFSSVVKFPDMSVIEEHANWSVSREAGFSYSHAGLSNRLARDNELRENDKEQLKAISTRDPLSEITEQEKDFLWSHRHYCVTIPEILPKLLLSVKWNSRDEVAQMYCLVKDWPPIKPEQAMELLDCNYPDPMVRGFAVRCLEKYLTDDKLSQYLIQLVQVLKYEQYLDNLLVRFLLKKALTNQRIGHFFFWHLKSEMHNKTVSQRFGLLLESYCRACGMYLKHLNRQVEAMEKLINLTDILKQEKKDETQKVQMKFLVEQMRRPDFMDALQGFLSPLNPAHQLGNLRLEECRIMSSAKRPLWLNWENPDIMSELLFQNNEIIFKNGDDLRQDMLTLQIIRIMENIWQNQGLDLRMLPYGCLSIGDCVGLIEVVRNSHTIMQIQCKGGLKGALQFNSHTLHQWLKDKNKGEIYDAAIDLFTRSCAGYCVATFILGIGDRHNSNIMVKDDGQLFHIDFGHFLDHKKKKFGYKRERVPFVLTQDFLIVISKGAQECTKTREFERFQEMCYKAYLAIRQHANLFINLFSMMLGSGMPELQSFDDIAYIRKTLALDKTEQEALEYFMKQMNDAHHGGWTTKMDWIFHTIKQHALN
# [2] = molecular target: Phosphatidylinositol 4,5-bisphosphate 3-kinase catalytic subunit beta isoform (Homo sapiens, UniProt P42338); assay: Inhibition of PI3Kbeta (unknown origin) assessed as reduction in ATP depletion using lipid substrate after 40 mins by Kinase-Glo luminescent assay
# Phosphatidylinositol 4,5-bisphosphate 3-kinase catalytic subunit beta isoform, sequence (P42338 whole entry, canonical isoform): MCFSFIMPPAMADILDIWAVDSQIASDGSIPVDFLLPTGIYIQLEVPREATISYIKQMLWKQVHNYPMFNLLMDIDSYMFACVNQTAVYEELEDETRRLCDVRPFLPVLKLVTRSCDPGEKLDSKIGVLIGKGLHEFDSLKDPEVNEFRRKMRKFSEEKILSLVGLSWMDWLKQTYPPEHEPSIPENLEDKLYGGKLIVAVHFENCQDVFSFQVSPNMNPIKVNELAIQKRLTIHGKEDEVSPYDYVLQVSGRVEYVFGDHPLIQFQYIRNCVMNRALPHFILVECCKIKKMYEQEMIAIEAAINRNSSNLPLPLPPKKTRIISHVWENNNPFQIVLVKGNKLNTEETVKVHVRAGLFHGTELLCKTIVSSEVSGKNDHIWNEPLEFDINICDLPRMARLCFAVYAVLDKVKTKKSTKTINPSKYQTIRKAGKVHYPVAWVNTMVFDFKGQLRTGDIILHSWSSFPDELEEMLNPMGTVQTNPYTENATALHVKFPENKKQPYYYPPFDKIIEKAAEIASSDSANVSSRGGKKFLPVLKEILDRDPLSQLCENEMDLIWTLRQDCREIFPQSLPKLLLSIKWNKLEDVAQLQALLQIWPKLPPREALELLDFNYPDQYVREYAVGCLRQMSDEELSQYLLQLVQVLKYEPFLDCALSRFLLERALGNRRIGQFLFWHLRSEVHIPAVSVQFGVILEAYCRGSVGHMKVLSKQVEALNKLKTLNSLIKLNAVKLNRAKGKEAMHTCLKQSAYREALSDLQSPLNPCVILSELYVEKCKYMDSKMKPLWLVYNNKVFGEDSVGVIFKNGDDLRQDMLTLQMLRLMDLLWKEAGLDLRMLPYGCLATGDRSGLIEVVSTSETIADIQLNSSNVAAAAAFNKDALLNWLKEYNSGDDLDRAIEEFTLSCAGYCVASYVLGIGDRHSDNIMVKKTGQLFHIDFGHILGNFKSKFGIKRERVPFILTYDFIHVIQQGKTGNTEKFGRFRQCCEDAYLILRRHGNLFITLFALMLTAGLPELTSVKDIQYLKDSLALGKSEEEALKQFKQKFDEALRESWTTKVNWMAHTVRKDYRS
# CCRF S-180 [3] = assay: Antitumor activity against mouse S180 cells implanted in mouse assessed as tumor growth inhibition at 15 mg/kg, po qd for 8 days relative to control; type: functional; conditions: CCRF S-180, po, 192 h, read-out: TGI
# CCRF S-180 [4] = assay: Antitumor activity against mouse S180 cells implanted in mouse assessed as tumor growth inhibition at 5 mg/kg, po qd for 8 days relative to control; type: functional; conditions: CCRF S-180, po, 192 h, read-out: TGI
# [5] = molecular target: Phosphatidylinositol 4,5-bisphosphate 3-kinase catalytic subunit gamma isoform (Homo sapiens, UniProt P48736); assay: Inhibition of PI3Kgamma (unknown origin) assessed as reduction in ATP depletion using lipid substrate after 40 mins by Kinase-Glo luminescent assay
# Phosphatidylinositol 4,5-bisphosphate 3-kinase catalytic subunit gamma isoform, sequence (P48736 whole entry, canonical isoform): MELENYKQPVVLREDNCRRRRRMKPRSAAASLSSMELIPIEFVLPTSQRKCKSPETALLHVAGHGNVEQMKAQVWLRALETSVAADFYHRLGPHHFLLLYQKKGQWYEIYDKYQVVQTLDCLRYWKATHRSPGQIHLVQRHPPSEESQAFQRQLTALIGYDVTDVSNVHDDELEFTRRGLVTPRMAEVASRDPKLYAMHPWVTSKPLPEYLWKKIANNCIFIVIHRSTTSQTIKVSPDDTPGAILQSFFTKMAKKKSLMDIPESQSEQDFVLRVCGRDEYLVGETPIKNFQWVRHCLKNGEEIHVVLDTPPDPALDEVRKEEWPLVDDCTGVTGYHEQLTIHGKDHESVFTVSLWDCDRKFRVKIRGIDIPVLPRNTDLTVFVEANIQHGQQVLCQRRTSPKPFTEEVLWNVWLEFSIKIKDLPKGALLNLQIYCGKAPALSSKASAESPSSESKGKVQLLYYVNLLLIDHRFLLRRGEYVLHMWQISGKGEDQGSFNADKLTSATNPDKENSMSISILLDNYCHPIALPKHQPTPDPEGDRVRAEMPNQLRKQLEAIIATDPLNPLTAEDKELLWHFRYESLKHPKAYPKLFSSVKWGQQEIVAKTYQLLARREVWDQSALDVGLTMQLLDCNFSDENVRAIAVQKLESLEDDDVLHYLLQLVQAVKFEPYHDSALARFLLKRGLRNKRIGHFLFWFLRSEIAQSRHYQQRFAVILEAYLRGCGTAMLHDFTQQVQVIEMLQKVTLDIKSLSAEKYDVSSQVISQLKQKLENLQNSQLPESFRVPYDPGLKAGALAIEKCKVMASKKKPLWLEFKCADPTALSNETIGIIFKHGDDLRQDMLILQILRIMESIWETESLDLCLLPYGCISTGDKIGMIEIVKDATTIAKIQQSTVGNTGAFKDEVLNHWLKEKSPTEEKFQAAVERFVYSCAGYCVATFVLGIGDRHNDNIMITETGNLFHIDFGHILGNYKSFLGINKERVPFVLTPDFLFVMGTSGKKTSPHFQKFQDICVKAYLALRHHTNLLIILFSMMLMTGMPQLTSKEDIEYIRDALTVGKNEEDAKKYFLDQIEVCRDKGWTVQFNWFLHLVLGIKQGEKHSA
# [6] = Toxicity in mouse implanted with mouse S180 cells assessed as body weight loss at 5 to 50 mg/kg, po qd for 8 days; type: organism-based; conditions: in vivo, 192 h
# CCRF S-180 [7] = assay: Antitumor activity against mouse S180 cells implanted in mouse assessed as tumor growth inhibition at 50 mg/kg, po qd for 8 days relative to control; type: functional; conditions: CCRF S-180, po, 192 h, read-out: TGI
# [8] = molecular target: T1, Phosphatidylinositol 4,5-bisphosphate 3-kinase catalytic subunit delta isoform (Homo sapiens, UniProt O00329); assay: Inhibition of PI3Kdelta (unknown origin) assessed as reduction in ATP depletion using lipid substrate after 40 mins by Kinase-Glo luminescent assay
# T1 sequence (O00329 whole entry): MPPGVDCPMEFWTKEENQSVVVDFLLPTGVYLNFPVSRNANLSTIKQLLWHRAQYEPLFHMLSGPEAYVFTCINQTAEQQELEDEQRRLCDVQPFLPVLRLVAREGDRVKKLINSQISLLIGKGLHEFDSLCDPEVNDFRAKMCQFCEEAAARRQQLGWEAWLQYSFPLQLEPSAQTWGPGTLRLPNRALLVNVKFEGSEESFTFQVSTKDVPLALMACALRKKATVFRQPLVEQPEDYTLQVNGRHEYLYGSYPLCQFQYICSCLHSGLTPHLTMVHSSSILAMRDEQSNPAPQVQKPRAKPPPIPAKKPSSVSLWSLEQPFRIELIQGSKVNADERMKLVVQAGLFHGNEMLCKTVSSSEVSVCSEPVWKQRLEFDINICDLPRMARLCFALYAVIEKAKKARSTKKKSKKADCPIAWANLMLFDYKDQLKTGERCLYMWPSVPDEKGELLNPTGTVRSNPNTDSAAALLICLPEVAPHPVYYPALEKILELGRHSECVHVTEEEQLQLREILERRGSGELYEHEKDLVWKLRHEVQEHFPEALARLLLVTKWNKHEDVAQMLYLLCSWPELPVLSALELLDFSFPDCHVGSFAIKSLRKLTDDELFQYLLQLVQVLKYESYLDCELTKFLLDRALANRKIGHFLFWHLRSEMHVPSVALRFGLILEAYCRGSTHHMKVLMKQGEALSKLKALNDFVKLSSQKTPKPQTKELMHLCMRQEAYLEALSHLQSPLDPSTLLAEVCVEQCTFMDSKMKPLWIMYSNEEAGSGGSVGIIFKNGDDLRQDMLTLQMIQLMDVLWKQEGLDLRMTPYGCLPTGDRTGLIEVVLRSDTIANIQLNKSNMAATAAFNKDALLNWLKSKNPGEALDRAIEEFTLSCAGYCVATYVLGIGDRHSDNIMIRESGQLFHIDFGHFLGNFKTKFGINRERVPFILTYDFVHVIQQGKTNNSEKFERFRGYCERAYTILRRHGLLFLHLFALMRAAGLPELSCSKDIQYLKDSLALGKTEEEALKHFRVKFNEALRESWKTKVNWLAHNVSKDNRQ
SMILES,IC50 (HCT-116) [µM],IC50 (MCF7) [µM],also measured
COc1ccc(-c2ccc3ncnc(NCCN4CCCCC4)c3c2)cc1C(N)=O,29.4,39.1,–
COc1ccc(-c2ccc3ncnc(NCCN(C)C)c3c2)cn1,15.8,2.97,–
COc1ncc(-c2ccc3ncnc(OCCN(C)C)c3c2)cc1[N+](=O)[O-],9.38,7.26,–
CCN(CC)CCNc1ncnc2ccc(-c3cnc(OC)c([N+](=O)[O-])c3)cc12,7.33,16.3,–
COc1ccc(-c2ccc3ncnc(NCCN4CCCCC4)c3c2)cn1,22.2,2.42,–
COc1ncc(-c2ccc3ncnc(NCCN4CCCCC4)c3c2)cc1C#N,2.68,2.74,–
COc1ncc(-c2ccc3ncnc(OCCN(C)C)c3c2)cc1C#N,5.16,6.68,–
COc1ccc(-c2ccc3ncnc(NCCN4CCOCC4)c3c2)cn1,38.6,34.3,–
COc1ccc(-c2ccc3ncnc(NCCN4CCOCC4)c3c2)cc1C(N)=O,24.4,29.3,–
CCN(CC)CCNc1ncnc2ccc(-c3ccc(OC)nc3)cc12,9.56,8.74,–
COc1ccc(-c2ccc3ncnc(NCCN4CCCC4)c3c2)cn1,3.91,10.1,–

# Now those with a lower IC50 (HCT-116), led by results:
IC50 (HCT-116) [µM],IC50 (MCF7) [µM],SMILES,also measured
0.56,3.23,COc1ncc(-c2ccc3ncnc(NCCN(C)C)c3c2)cc1C#N,IC50 [1]: 3.01 µM
0.51,2.1,COc1ncc(-c2ccc3ncnc(NCCN4CCOCC4)c3c2)cc1C#N,IC50 [2]: 0.3 µM; IC50 [1]: 0.465 µM; inhibition in vivo at 15 mg/kg (CCRF S-180 [3]): 49%; inhibition in vivo at 5 mg/kg (CCRF S-180 [4]): 33%; IC50 [5]: 0.934 µM; Activity [6]: Non-Toxic; inhibition in vivo at 50 mg/kg (CCRF S-180 [7]): 68.4%; IC50 [8]: 0.037 µM
1.8,2.87,COc1ncc(-c2ccc3ncnc(NCCN4CCOCC4)c3c2)cc1[N+](=O)[O-],–
2.35,6.22,COc1ncc(-c2ccc3ncnc(NCCN4CCCC4)c3c2)cc1C#N,–
2.05,3.86,CCN(CC)CCNc1ncnc2ccc(-c3cnc(OC)c(C#N)c3)cc12,–
0.65,8.61,COc1ncc(-c2ccc3ncnc(NCCN4CCCCC4)c3c2)cc1[N+](=O)[O-],IC50 [1]: 3.17 µM
